Experiments:
[1] = system: non-small cell lung cancer cell line H460; experiment: In vitro human cancer cell line cytotoxicity (proliferation) assay in H460, CellTiter-Glo, 72 hours; assay type: cell-based; conditions: H460 cells, DMSO condition (no AKR1C3 inhibitor), read-out: CTG H460: Avg IC50 (nM) [Assay Condition: DMSO]
Procedure, shortened: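 H460 cells were seeded at 3×10^3 per well and grown 24 h at 37 °C, 5% CO2 before compound addition from 10 mM DMSO stocks. After 72 h further incubation, viability was measured by CellTiter-Glo, and IC50 values in nM were derived from the proliferation data.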

[2] = system: non-small cell lung cancer cell line H460; experiment: H460 proliferation assay in the presence of 3 uM ASP9521 (AKR1C3 specific inhibitor); assay type: cell-based, human; conditions: H460 cells, CellTiter-Glo, 72 hours, in the presence of 3 uM ASP9521 added 4 hours prior to compounds; read-out: CTG H460: Avg IC50 (nM) [Assay Condition: ASP9521]
Procedure, shortened: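 H460 cells pre-incubated 24 h, then exposed to compounds for 72 h at 37 °C, 5% CO2. Viability read by CellTiter-Glo. ASP9521 (3 uM, AKR1C3 inhibitor) added 4 h before compounds.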

Compound: C[C@@H](OP(=O)(N1CC1)N1CC1)c1cc2cc(Oc3cccc(C(=O)N4CCC4)c3)c([N+](=O)[O-])cc2o1 [Example 559]
- IC50 [1]: 10 to 50 nM
- IC50 [2]: 7000 nM

Compound: O=[N+]([O-])c1ccc2c(c1Oc1ccc(F)c(-c3ccccn3)c1)CC[C@@H]2OP(=O)(N1CC1)N1CC1 [Example 337]
- IC50 [1]: 10 to 50 nM
- IC50 [2]: 5800 nM

Compound: CN1CCOc2ccc(Oc3cc4c(cc3[N+](=O)[O-])CCC4OP(=O)(N3CC3)N3CC3)cc2C1=O (centres unmarked) [Example 159]
- IC50 [1]: ≥ 100 nM
- IC50 [2]: > 10000 nM

Compound: CN1Cc2cc(Oc3cc4c(cc3[N+](=O)[O-])CCC4OP(=O)(N3CC3)N3CC3)ccc2C1=O (centres unmarked) [Example 155]
- IC50 [1]: < 10 nM
- IC50 [2]: 128 nM

Compound: O=C(NC1CCC1)c1ccc(Oc2c([N+](=O)[O-])ccc3c2CC[C@H]3OP(=O)(N2CC2)N2CC2)cc1 [Example 262]
- IC50 [1]: < 10 nM
- IC50 [2]: 945 nM

Compound: CC(OP(=O)(N1C[C@@H]1C)N1C[C@@H]1C)c1ccc([N+](=O)[O-])c(Oc2cccc(C(=O)N(C)C)c2)c1 (single isomer, unassigned) [Example 209]
- IC50 ([1]; Homo sapiens, NCI-H460, 72 h): < 10 nM
- IC50 [2]: 517 nM

Compound: C[C@H](OP(=O)(N1CC1)N1CC1)c1cc2cc(Oc3cccc(C4CC4)c3)c([N+](=O)[O-])cc2o1 [Example 562]
- IC50 [1]: < 10 nM
- IC50 [2]: 3040 nM

Compound: O=[N+]([O-])c1ccc2c(c1Oc1cccc(-c3ccc(F)cc3)c1)CC[C@@H]2OP(=O)(N1CC1)N1CC1 [Example 298]
- IC50 ([1]; Homo sapiens, NCI-H460, 72 h): < 10 nM
- IC50 [2]: 1690 nM

Compound: O=[N+]([O-])c1ccc2c(c1Oc1cccc(OC(F)(F)F)c1)CCC2OP(=O)(N1CC1)N1CC1 (racemic) [Example 447]
- IC50 [1]: < 10 nM
- IC50 [2]: 547 nM

Compound: CC(C)COc1cc(Oc2c([N+](=O)[O-])ccc3c2CC[C@@H]3OP(=O)(N2CC2)N2CC2)ccc1F [Example 498]
- IC50 ([1]; Homo sapiens, NCI-H460, 72 h): < 10 nM
- IC50 [2]: 899 nM

Compound: Cn1cc(-c2ccc(Oc3cc4c(cc3[N+](=O)[O-])CCC4OP(=O)(N3CC3)N3CC3)cc2)cn1 (centres unmarked) [Example 180]
- IC50 ([1]; Homo sapiens, NCI-H460, 72 h): < 10 nM
- IC50 [2]: 1950 nM

Compound: O=C(c1ccc(Oc2c([N+](=O)[O-])ccc3c2CCC3OP(=O)(N2CC2)N2CC2)cc1)N1CCOCC1 (centres unmarked) [Example 34]
- IC50 ([1]; Homo sapiens, NCI-H460, 72 h): 10 to 50 nM
- IC50 [2]: 822 nM

Compound: O=[N+]([O-])c1cc2c(cc1Oc1ccc(-c3ccccn3)cc1)C(OP(=O)(N1CC1)N1CC1)CC2 (single isomer, unassigned) [Example 188]
- IC50 ([1]; Homo sapiens, NCI-H460, 72 h): < 10 nM
- IC50 [2]: 2070 nM

Compound: O=[N+]([O-])c1ccc2c(c1Oc1cccc(-c3cnc[nH]3)c1)CC[C@@H]2OP(=O)(N1CC1)N1CC1 [Example 362]
- IC50 ([1]; Homo sapiens, NCI-H460, 72 h): < 10 nM
- IC50 [2]: 1660 nM

Compound: [2H]C([2H])([2H])N(C(=O)c1cccc(Oc2cc3cc([C@H](C)OP(=O)(N4CC4)N4CC4)oc3cc2[N+](=O)[O-])c1)C([2H])([2H])[2H] (single isomer, unassigned) [Example 533]
- IC50 ([1]; Homo sapiens, NCI-H460, 72 h): 10 to 50 nM
- IC50 [2]: 7430 nM

Compound: O=[N+]([O-])c1ccc2c(c1Oc1cccc(-c3ncccn3)c1)CCC2OP(=O)(N1CC1)N1CC1 (centres unmarked) [Example 85]
- IC50 [1]: < 10 nM
- IC50 [2]: 5280 nM
